Measured values reported in patent publication US20250034135A1, “ANTI-APOPTOTIC PROTEIN BCL-2 INHIBITOR, PHARMACEUTICAL COMPOSITION AND USES THEREOF” (HANGZHOU HEALZEN THERAPEUTICS CO., LTD., priority 2021, published 2025).

target: BCL2 (Homo sapiens (Human), UniProt P10415); assay: Molecular level activity test of anti-apoptotic protein BCL2 (HTRF, binding to Bim peptide); details: HTRF, binding of BCL2 to Bim peptide; read-out: BCL2 nM (inhibitory activity, IC50)
Summary of the method: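 Competition binding format: recombinant His-BCL2 and a biotin-Bim peptide are incubated with compound for 1 h, followed by 4 h at room temperature with HTRF detection antibodies.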

Chain of BCL2 (P10415 whole entry): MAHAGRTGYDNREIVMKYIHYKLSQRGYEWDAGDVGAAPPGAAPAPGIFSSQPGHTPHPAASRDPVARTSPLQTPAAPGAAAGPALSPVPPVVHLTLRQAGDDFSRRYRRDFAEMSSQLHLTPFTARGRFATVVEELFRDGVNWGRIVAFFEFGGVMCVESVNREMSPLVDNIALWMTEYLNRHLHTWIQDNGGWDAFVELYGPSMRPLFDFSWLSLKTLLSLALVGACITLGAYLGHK

IC50 [nM]	SMILES
< 10	COc1ccc(CN2CCN(C3CC4(CCN(c5cc(Oc6cnc7[nH]ccc7c6)c(C(=O)NS(=O)(=O)c6cc([N+](=O)[O-])c(NCC7CCOCC7)c7ocnc67)cc5F)CC4)C3)[C@H](c3ccccc3C(C)C)C2)cc1 [compound 121, (R)-2-((1H-pyrrolo[2,3-b]pyrid-5-yl)oxy)-5-fluoro-4-(2-(2-(2-isopropylphenyl)-4-(4-methoxybenzyl)piperazin-1-yl)-7-azaspiro[3.5]non-7-yl)-N-((6-nitro-7-(((tetrahydro-2H-pyran-4-yl)methyl)amino)benzo[d]oxazol-4-yl)sulfonyl)benzamide]
< 10	CC(C)c1ccccc1[C@@H]1CCCN1C1CC2(CCN(c3cc(Oc4cnc5[nH]ccc5c4)c(C(=O)NS(=O)(=O)c4cc([N+](=O)[O-])c(NCC5CCOCC5)c5c4OCO5)cc3F)CC2)C1 [compound 156, (S)-2-((1H-pyrrolo[2,3-b]pyrid-5-yl)oxy)-5-fluoro-4-(2-(2-(2-isopropylphenyl)pyrrolidin-1-yl)-7-azaspiro[3.5]non-7-yl)-N-((6-nitro-7-(((tetrahydro-2H-pyran-4-yl)methyl)amino)benzo[d][1,3]dioxocyclopent-4-yl)sulfonyl)benzamide]
< 10	CC(C)c1ccccc1[C@@H]1CN(Cc2c(F)cccc2F)CCN1C1CC2(CCN(c3ccc(C(=O)NS(=O)(=O)c4cc([N+](=O)[O-])c(NC[C@H]5CC[C@](C)(O)CC5)c5c4OCO5)c(Oc4cnc5[nH]ccc5c4)c3)CC2)C1 [compound 177, 2-((1H-pyrrolo[2,3-b]pyrid-5-yl)oxy)-4-(2-((R)-4-(2,6-difluorobenzyl)-2-(2-isopropylphenyl)piperazin-1-yl)-7-azaspiro[3.5]non-7-yl)-N-((7-((((1r, 4r)-4-hydroxy-4-methylcyclohexyl)methyl)amino)-6-nitrobenzo[d][1,3]dioxocyclopent-4-yl)sulfonyl)benzamide]
< 10	CC(C)c1ccccc1[C@@H]1CCCN1C1CC2(CCN(c3ccc(C(=O)NS(=O)(=O)c4cc([N+](=O)[O-])c(NCC5CCOCC5)c5c4OCO5)c(Oc4cnc5[nH]ccc5c4)c3)CC2)C1 [compound 160, (S)-2-((1H-pyrrolo[2,3-b]pyrid-5-yl)oxy)-4-(2-(2-(2-isopropylphenyl)pyrrolidin-1-yl)-7-azaspiro[3.5]non-7-yl)-N-((6-nitro-7-(((tetrahydro-2H-pyran-4-yl)methyl)amino)benzo[d][1,3]dioxocyclopent-4-yl)sulfonyl)benzamide]
< 10	CC(C)c1ccccc1[C@@H]1CN(Cc2cccnc2)CCN1C1CC2(CCN(c3cc(Oc4cnc5[nH]ccc5c4)c(C(=O)NS(=O)(=O)c4ccc(NC[C@H]5CC[C@](C)(O)CC5)c([N+](=O)[O-])c4)cc3F)CC2)C1 [compound 232, 2-((1H-pyrrolo[2,3-b]pyrid-5-yl)oxy)-5-fluoro-N-((4-((((1r, 4r)-4-hydroxy-4-methylcyclohexyl)methyl)amino)-3-nitrophenyl)sulfonyl)-4-(2-((R)-2-(2-isopropylphenyl)-4-(pyrid-3-ylmethyl)piperazin-1-yl)-7-azaspiro[3.5]non-7-yl)benzamide]
< 10	CC(C)c1ccccc1[C@@H]1CCCN1C1CC2(CCN(c3ccc(C(=O)NS(=O)(=O)c4cc([N+](=O)[O-])c(NCC5(F)CCN(C6COC6)CC5)c5[nH]cnc45)c(N4CCOc5nc6[nH]ccc6cc54)c3)CC2)C1 [compound 080, (S)-2-(2,3-dihydropyrrolo[3′,2′:5,6]pyridino[2,3-b][1,4]oxazin-1 (6H)-yl)-N-((7-(((4-fluoro-1-(oxocyclobut-3-yl)piperid-4-yl)methyl)amino)-6-nitro-1H-benzo[d]imidazol-4-yl)sulfonyl)-4-(2-(2-(2-isopropylphenyl)pyrrolidin-1-yl)-7-azaspiro[3.5]non-7-yl)benzamide]
< 10	COc1ccc(CN2CCN(C3CC4(CCN(c5cc(Oc6cnc7[nH]ccc7c6)c(C(=O)NS(=O)(=O)c6cc([N+](=O)[O-])c(NCC7(F)CCOCC7)c7c6OCO7)cc5F)CC4)C3)[C@H](c3ccccc3C(C)C)C2)cc1 [compound 106, (R)-2-((1H-pyrrolo[2,3-b]pyrid-5-yl)oxy)-5-fluoro-N-((7-(((4-fluorotetrahydro-2H-pyran-4-yl)methyl)amino)-6-nitrobenzo[d][1,3]dioxocyclopent-4-yl)sulfonyl)-4-(2-(2-(2-isopropylphenyl)-4-(4-methoxybenzyl)piperazin-1-yl)-7-azaspiro[3.5]non-7-yl)benzamide]
< 10	CC(C)c1ccccc1[C@@H]1CCCN1C1CC2(CCN(c3cc(N4CCOc5nc6[nH]ccc6cc54)c(C(=O)NS(=O)(=O)c4cc([N+](=O)[O-])c(NC[C@H]5CC[C@](C)(O)CC5)c5[nH]cnc45)cc3F)CC2)C1 [compound 082, 2-(2,3-dihydropyrrolo[3′,2′:5,6]pyridino[2,3-b][1,4]oxazin-1 (6H)-yl)-5-fluoro-N-((7-((((1r,4r)-4-hydroxy-4-methylcyclohexyl)methyl)amino)-6-nitro-1H-benzo[d]imidazol-4-yl)sulfonyl)-4-(2-((S)-2-(2-isopropylphenyl)pyrrolidin-1-yl)-7-azaspiro[3.5]non-7-yl)benzamide]
< 10	COc1ccc(CN2CCN(C3CC4(C3)CN(c3cc(Oc5cnc6[nH]ccc6c5)c(C(=O)NS(=O)(=O)c5cc([N+](=O)[O-])c(NCC6(F)CCN(C(C)C)CC6)c6[nH]cnc56)cc3F)C4)C(c3ccccc3C(C)C)C2)cc1 (stereo not drawn) [compound 074, 2-((1H-pyrrolo[2,3-b]pyrid-5-yl)oxy)-5-fluoro-N-((7-(((4-fluoro-1-isopropylpiperid-4-yl)methyl)amino)-6-nitro-1H-benzo[d]imidazol-4-yl)sulfonyl)-4-(6-(2-(2-isopropylphenyl)-4-(4-methoxybenzyl)piperazin-1-yl)-2-azaspiro[3.3]hept-2-yl)benzamide]
< 10	COc1ccc(CN2CCN(C3CC4(CCN(c5cc(Oc6cnc7[nH]ccc7c6)c(C(=O)NS(=O)(=O)c6cc([N+](=O)[O-])c(NCC7CCOCC7)c7[nH]cnc67)cc5F)CC4)C3)C(c3ccccc3C(C)C)C2)cc1 (stereo not drawn) [compound 076, 2-((1H-pyrrolo[2,3-b]pyrid-5-yl)oxy)-5-fluoro-4-(2-(2-(2-isopropylphenyl)-4-(4-methoxybenzyl)piperazin-1-yl)-7-azaspiro[3.5]non-7-yl)-N-((6-nitro-7-(((tetrahydro-2H-pyran-4-yl)methyl)amino)-1H-benzo[d]imidazol-4-yl)sulfonyl)benzamide]
< 10	COc1ccc(CN2CCN(C3CC4(CCN(c5ccc(C(=O)NS(=O)(=O)c6cc([N+](=O)[O-])c(NC[C@H]7CC[C@](C)(O)CC7)c7c6OC(F)(F)O7)c(Oc6cnc7[nH]ccc7c6)c5)CC4)C3)[C@H](c3ccccc3C(C)C)C2)cc1 [compound 165, 2-((1H-pyrrolo[2,3-b]pyrid-5-yl)oxy)-N-((2,2-difluoro-7-((((1r, 4r)-4-hydroxy-4-methylcyclohexyl)methyl)amino)-6-nitrobenzo[d][1,3]dioxocyclopent-4-yl)sulfonyl)-4-(2-((R)-2-(2-isopropylphenyl)-4-(4-methoxybenzyl)piperazin-1-yl)-7-azaspiro[3.5]non-7-yl)benzamide]
< 10	COc1ccc(CN2CCN(C3CC4(C3)CN(c3ccc(C(=O)NS(=O)(=O)c5cc([N+](=O)[O-])c(NCC6(F)CCN(C(C)C)CC6)c6[nH]cnc56)c(Oc5cnc6[nH]ccc6c5)c3)C4)C(c3ccccc3C(C)C)C2)cc1 (stereo not drawn) [compound 046, 2-((1H-pyrrolo[2,3-b]pyrid-5-yl)oxy)-N-((7-(((4-fluoro-1-isopropylpiperid-4-yl)methyl)amino)-6-nitro-1H-benzo[d]imidazol-4-yl)sulfonyl)-4-(6-(2-(2-isopropylphenyl)-4-(4-methoxybenzyl)piperazin-1-yl)-2-azaspiro[3.3]hept-2-yl)benzamide]
< 10	COc1ccc(CN2CCN(C3CC4(CCN(c5cc(Oc6cnc7[nH]ccc7c6)c(C(=O)NS(=O)(=O)c6cc([N+](=O)[O-])c(NCC7(F)CCOCC7)c7ocnc67)cc5F)CC4)C3)[C@H](c3ccccc3C(C)C)C2)cc1 [compound 107, (R)-2-((1H-pyrrolo[2,3-b]pyrid-5-yl)oxy)-5-fluoro-N-((7-(((4-fluorotetrahydro-2H-pyran-4-yl)methyl)amino)-6-nitrobenzo[d]oxazol-4-yl)sulfonyl)-4-(2-(2-(2-isopropylphenyl)-4-(4-methoxybenzyl)piperazin-1-yl)-7-azaspiro[3.5]non-7-yl)benzamide]
< 10	CC(C)c1ccccc1[C@@H]1CCCN1C1CC2(CCN(c3ccc(C(=O)NS(=O)(=O)c4cc([N+](=O)[O-])c(NCC5(F)CCN(C(C)C)CC5)c5[nH]cnc45)c(N4CCCOc5nc6[nH]ccc6cc54)c3)CC2)C1 [compound 086, (S)-2-(3,4-dihydro-2H-pyrrolo[3′,2′:5,6]pyridino[2,3-b][1,4]oxazacyclohept-1 (7H)-yl)-N-((7-(((4-fluoro-1-isopropylpiperid-4-yl)methyl)amino)-6-nitro-1H-benzo[d]imidazol-4-yl)sulfonyl)-4-(2-(2-(2-isopropylphenyl)pyrrolidin-1-yl)-7-azaspiro[3.5]non-7-yl)benzamide]
< 10	CC(C)c1ccccc1[C@@H]1CCCN1C1CC2(CCN(c3cc(Oc4cnc5[nH]ccc5c4)c(C(=O)NS(=O)(=O)c4cc([N+](=O)[O-])c(NC[C@H]5CC[C@](C)(O)CC5)c5[nH]cnc45)cc3F)CC2)C1 [compound 014, 2-((1H-pyrrolo[2,3-b]pyrid-5-yl)oxy)-5-fluoro-N-((7-((((1r,4r)-4-hydroxy-4-methylcyclohexyl)methyl)amino)-6-nitro-1H-benzo[d]imidazol-4-yl)sulfonyl)-4-(2-((S)-2-(2-isopropylphenyl)pyrrolidin-1-yl)-7-azaspiro[3.5]non-7-yl)benzamide]
